# According to the supplement of paper PMC10307832:
# Legend:
# Assay in all cases: relative viability (nuclei count vs DMSO), 5 days (fraction); higher = more cells survive
# [1] = tested on: NCI-H2087
# Method in brief: (§1)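 One day after seeding in 1536-well plates, lung cancer cell lines were dosed by pin tool. Dosing was either single-drug or a fixed anchor-drug dose plus five library-drug doses (not always all listed) in √10 steps. After 5 days, nuclei were stained in one fix-and-stain step and counted on 4× images, and relative viability is the nuclei count of treated wells over that of vehicle wells, given as the median of duplicate plates.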
# [2] = tested on: H3255
# Method in brief: as §1
# [3] = tested on: NCI-H322M
# Method in brief: as §1
# [4] = tested on: PC-14
# Method in brief: as §1
# [5] = tested on: PC-3 [JPC-3]
# Method in brief: as §1
# [6] = tested on: NCI-H1792
# Method in brief: as §1
# [7] = tested on: NCI-H1355
# Method in brief: as §1
# [8] = tested on: LK-2
# Method in brief: as §1
# [9] = tested on: NCI-H2228
# Method in brief: as §1
# [10] = tested on: NCI-H1666
# Method in brief: as §1
# [11] = tested on: UMC-11
# Method in brief: as §1
# [12] = tested on: NCI-H838
# Method in brief: as §1
# [13] = tested on: NCI-H661
# Method in brief: as §1
# [14] = tested on: NCI-H1651
# Method in brief: as §1
# [15] = tested on: ABC-1
# Method in brief: as §1
# [16] = tested on: CAL-12T
# Method in brief: as §1
# [17] = tested on: A-427
# Method in brief: as §1
# [18] = tested on: NCI-H2085
# Method in brief: as §1
# [19] = tested on: NCI-H1395
# Method in brief: as §1
# [20] = tested on: NCI-H358
# Method in brief: as §1
# [21] = tested on: SK-MES-1
# Method in brief: as §1
# [22] = tested on: NCI-H1915
# Method in brief: as §1
# [23] = tested on: LCLC-97TM1
# Method in brief: as §1
structure (smiles),measurement,setting,value
O=c1[nH]c2ccccc2n1C1CCN(CCCC(c2ccc(F)cc2)c2ccc(F)cc2)CC1 [Pimozide] + CC(=O)c1c(C)c2cnc(Nc3ccc(N4CCNCC4)cn3)nc2n(C2CCCC2)c1=O [Palbociclib] (partner 0.5 µM),relative viability,[1]; first compound 0.08 µM,0.197
same,relative viability,[1]; first compound 0.253 µM,0.233
same,relative viability,[1]; first compound 2.53 µM,0.274
same,relative viability,[1]; first compound 8 µM,0.195
same,relative viability,[2]; first compound 0.253 µM,0.312
same,relative viability,[2]; first compound 0.8 µM,0.299
same,relative viability,[2]; first compound 2.53 µM,0.307
same,relative viability,[2]; first compound 8 µM,0.312
same,relative viability,[3]; first compound 0.08 µM,0.416
same,relative viability,[3]; first compound 0.253 µM,0.475
same,relative viability,[3]; first compound 0.8 µM,0.483
same,relative viability,[3]; first compound 2.53 µM,0.492
same,relative viability,[3]; first compound 8 µM,0.505
same,relative viability,[4]; first compound 0.253 µM,0.579
same,relative viability,[4]; first compound 0.8 µM,0.368
same,relative viability,[4]; first compound 2.53 µM,0.219
same,relative viability,[4]; first compound 8 µM,0.178
same,relative viability,[5]; first compound 0.253 µM,0.551
same,relative viability,[5]; first compound 0.8 µM,0.481
same,relative viability,[5]; first compound 2.53 µM,0.544
same,relative viability,[5]; first compound 8 µM,0.509
same,relative viability,[6]; first compound 0.08 µM,0.665
same,relative viability,[6]; first compound 0.253 µM,0.635
same,relative viability,[6]; first compound 0.8 µM,0.625
same,relative viability,[6]; first compound 2.53 µM,0.589
same,relative viability,[6]; first compound 8 µM,0.52
same,relative viability,[7]; first compound 0.08 µM,0.338
same,relative viability,[7]; first compound 0.253 µM,0.387
same,relative viability,[7]; first compound 0.8 µM,0.329
same,relative viability,[7]; first compound 2.53 µM,0.388
same,relative viability,[7]; first compound 8 µM,0.407
same,relative viability,[8]; first compound 0.08 µM,0.646
same,relative viability,[8]; first compound 0.253 µM,0.599
same,relative viability,[8]; first compound 0.8 µM,0.698
same,relative viability,[8]; first compound 8 µM,0.562
same,relative viability,[9]; first compound 0.08 µM,0.517
same,relative viability,[9]; first compound 0.253 µM,0.58
same,relative viability,[9]; first compound 0.8 µM,0.606
same,relative viability,[9]; first compound 2.53 µM,0.587
same,relative viability,[9]; first compound 8 µM,0.417
same,relative viability,[10]; first compound 0.08 µM,0.603
same,relative viability,[10]; first compound 0.253 µM,0.653
same,relative viability,[10]; first compound 0.8 µM,0.606
same,relative viability,[10]; first compound 2.53 µM,0.715
same,relative viability,[10]; first compound 8 µM,0.666
same,relative viability,[11]; first compound 0.08 µM,0.313
same,relative viability,[11]; first compound 0.253 µM,0.35
same,relative viability,[11]; first compound 0.8 µM,0.315
same,relative viability,[11]; first compound 2.53 µM,0.278
same,relative viability,[11]; first compound 8 µM,0.367
same,relative viability,[12]; first compound 0.08 µM,0.252
same,relative viability,[12]; first compound 0.253 µM,0.251
same,relative viability,[12]; first compound 0.8 µM,0.203
same,relative viability,[12]; first compound 2.53 µM,0.244
same,relative viability,[12]; first compound 8 µM,0.215
same,relative viability,[13]; first compound 0.08 µM,0.4
same,relative viability,[13]; first compound 0.253 µM,0.412
same,relative viability,[13]; first compound 0.8 µM,0.367
same,relative viability,[13]; first compound 2.53 µM,0.395
same,relative viability,[13]; first compound 8 µM,0.327
same,relative viability,[14]; first compound 0.08 µM,0.514
same,relative viability,[14]; first compound 0.253 µM,0.466
same,relative viability,[14]; first compound 0.8 µM,0.534
same,relative viability,[14]; first compound 2.53 µM,0.497
same,relative viability,[14]; first compound 8 µM,0.546
same,relative viability,[15]; first compound 0.08 µM,0.527
same,relative viability,[15]; first compound 0.253 µM,0.565
same,relative viability,[15]; first compound 0.8 µM,0.874
same,relative viability,[15]; first compound 2.53 µM,0.614
same,relative viability,[15]; first compound 8 µM,0.462
same,relative viability,[16]; first compound 0.08 µM,0.473
same,relative viability,[16]; first compound 0.253 µM,0.416
same,relative viability,[16]; first compound 0.8 µM,0.442
same,relative viability,[16]; first compound 2.53 µM,0.295
same,relative viability,[16]; first compound 8 µM,0.269
same,relative viability,[17]; first compound 0.08 µM,0.531
same,relative viability,[17]; first compound 0.253 µM,0.57
same,relative viability,[17]; first compound 0.8 µM,0.462
same,relative viability,[17]; first compound 2.53 µM,0.457
same,relative viability,[17]; first compound 8 µM,0.497
same,relative viability,[18]; first compound 0.08 µM,0.452
same,relative viability,[18]; first compound 0.253 µM,0.483
same,relative viability,[18]; first compound 0.8 µM,0.438
same,relative viability,[18]; first compound 2.53 µM,0.479
same,relative viability,[18]; first compound 8 µM,0.422
same,relative viability,[19]; first compound 0.08 µM,0.579
same,relative viability,[19]; first compound 0.253 µM,0.655
same,relative viability,[19]; first compound 0.8 µM,0.538
same,relative viability,[19]; first compound 2.53 µM,0.623
same,relative viability,[19]; first compound 8 µM,0.578
same,relative viability,[20]; first compound 0.08 µM,0.141
same,relative viability,[20]; first compound 0.253 µM,0.132
same,relative viability,[20]; first compound 0.8 µM,0.127
same,relative viability,[20]; first compound 2.53 µM,0.147
same,relative viability,[20]; first compound 8 µM,0.143
same,relative viability,[21]; first compound 0.08 µM,0.307
same,relative viability,[21]; first compound 0.253 µM,0.298
same,relative viability,[21]; first compound 0.8 µM,0.303
same,relative viability,[21]; first compound 2.53 µM,0.316
same,relative viability,[21]; first compound 8 µM,0.314
same,relative viability,[22]; first compound 0.08 µM,0.435
same,relative viability,[22]; first compound 0.253 µM,0.498
same,relative viability,[22]; first compound 2.53 µM,0.501
same,relative viability,[22]; first compound 8 µM,0.477
same,relative viability,[23]; first compound 0.08 µM,0.203
same,relative viability,[23]; first compound 0.253 µM,0.237
same,relative viability,[23]; first compound 0.8 µM,0.203
same,relative viability,[23]; first compound 2.53 µM,0.167
same,relative viability,[23]; first compound 8 µM,0.251
